According to patent publication US5391800A, “Method for inhibition of cell motility by sphingosine-1-phosphate, its derivatives and mimetics and method of synthesizing sphingosine-1-phosphate and its derivatives” (The Biomembrane Institute, priority 1993, dated 1995):

Assays:
[1] = tested on: PKC of B16/F1 melanoma cells; assay: PKC activity of B16/F1 melanoma cells (32P incorporation into histone IIIS); assay type: biochemical, mouse; settings: for Inhibitory effect on PKC activity: B16/F1 cells; for % PKC activity: control = 100%, mean ± S.E., n = 3; for PKC inhibition: concentration not given
Description: Effects of SPN derivatives on protein kinase C activity and cell growth of B16/F1 cells was also investigated. […] Toxicity of these compounds to B16/F1 cells and human neutrophils was also examined using a trypan blue exclusion assay after 1 hour incubation with the compounds.
*Mean ± S.E. (n = 3). For controls (defined as 100%), PKC activity was
33225 cpm per tube per 20 min, as measured by ^32 P incorporation int

B16/F1 melanoma cells = assay: Chemoinvasion of B16/F1 cells through thick MATRI-GEL layer on transwell filter; assay type: cell-based, mouse; settings: for Effect on invasion compared with SPN-1-P: FIG. 10; for % invasion: percent relative to control, mean ± S.E., n = 3 or 4, concentration not given, 4200 min
Description: The assays for determining chemotactic cell motility and chemoinvasion can be performed using transwell plates with a polycarbonate membrane filter (pore size 8 μm) (Costar Scientific, Cambridge, Mass.). Aliguots, e.g., 50 μl, of an aqueous solution of MATRI-GEL (Collaborative Research, Bedford, Mass.) containing SPN-1-P or other inhibitor (e.g., 20 μg/ml for chemotactic motility assay or 200 μg/ml for chemoinvasion assay), is added to each well and dried overnight. The filter is then fitted onto the lower chamber plate. The lower chamber can contain conditioned medium (CM) (i.e., medium used for splenic stromal cell culture, and containing motility factor secreted by these cells), e.g., 0.6 ml, with or without SPN-1-P or other inhibitor. To the upper chamber is added, e.g., about 100 μl, of cell suspension (5×10^4 cells/ml for invasion assay, 5×10^5 cells/ml for motility assay), which is then incubated in 5% CO2 at 37° C. for 70-72 hours (invasion assay) or 20 hours (motility assay). After incubation, cells remaining in the upper chamber are wiped off with a cotton swab, and cells which had migrated to the lower chamber side of the filter are fixed in methanol for 30 seconds and stained with 0.05% toluidine blue. The filter is removed, the stain is solubilized in 10% acetic acid (e.g., 0.1 ml for invasion assay, 0.5 ml for motility assay), and color intensity (optical density) is quantitated by ELISA reading at 630 nm. Using SPN-1-P, a linear relationship was observed between cell number and toluidine blue optical density (FIG. 7).
Assays were performed using transwell plates with polycarbonate membrane filters (pore size 8 μm) (Costar Scientific, Cambridge, Mass.). 50 μl aliguots of an aqueous solution of MATRI-GEL (Collaborative Research, Bedford, Mass.) containing 20 μg/ml (for chemotactic motility assay) or 200 μg/ml (for chemoinvasion assay) were added to each well and dried overnight. The filter was fitted onto the lower chamber plate. The lower chamber contained 0.6 ml conditioned medium (CM) (i.e., medium used for splenic stromal cell culture, and containing motility factor secreted by these cells) with or without the suspected inhibitor. To the upper chamber was added 100 μl of cell suspension (5×10^4 cells/ml for invasion assay, 5×10^5 cells/ml for motility assay), which was then incubated in 5% CO2 at 37° C. for 70-72 hours (invasion assay) or 20 hours (motility assay). After incubation, cells remaining in the upper chamber were wiped off with a cotton swab, and cells which had migrated to the lower chamber side of the filter were fixed in methanol for 30 seconds and stained with 0.05% toluidine blue. The filter was removed, the stain was solubilized in 10% acetic acid (0.1 ml for invasion assay, 0.5 ml for motility assay), and color intensity (optical density) was quantitated by ELISA reading at 630 nm. A linear relationship was observed between cell number and toluidine blue optical density (FIG. 7.).
Chemoinvasion was measured by the ability of tumor cells in CM (as described above) to migrate through a thick layer of MATRI-GEL during a prolonged incubation period (70 hours). This property is distinct from chemotactic cell motility, which involves a much shorter incubation period (20 hours) and a thin layer of MATRI-GEL. For the chemoinvasion assay, 10 μg of MATRI-GEL was applied to a polycarbonate transwell filter and migration was observed following 70 hours incubation (based on results shown in FIG. 8).

human neutrophils = assay: Phagokinetic activity of human neutrophils on gold sol-coated plates; assay type: cell-based; settings: for Cleared area: 2 hours, mean ± S.D., control 6.3 ± 2.3; for Reduction in phagokinetic activity of human neutrophils: Table VII, in words
Description: Phagokinetic activity is measured by the ability of cells to ingest foreign particles while moving. Cell motility can be estimated as the area of a phagokinetic track on gold sol particle-coated plates as previously described {Albrecht-Buehler, Cell, 11:395 (1977)}. A uniform coating of gold particles is prepared on glass coverslips precoated with bovine serum albumin, and coverslips are rinsed repeatedly to remove non-adhering or loosely-adhering gold particles. Freshly-prepared neutrophils or tumor cells detached from culture are placed in a Petri dish containing the gold sol-coated plate, and incubated for about 2 hours (for human neutrophils) or about 18 hours (for tumor cells). The coverslips are fixed for 1 hour in a 4% formaldehyde solution in phosphate-buffered saline (PBS) and mounted on microscope slides. The phagokinetic tracks are observed on a television connected to a light microscope (Nikon, Tokyo, Japan). Tracks on the television are transferred to translucent sheets, which are then photocopied. Phagokinetic activity is quantitated by cutting and weighing the swept area in the copy.
Cell motility was estimated as the area of phagokinetic track on gold sol particle-coated plates as previously described {Albrecht-Buehler, Cell, 11:395 (1977)}. A uniform coating of gold particles was prepared on glass coverslips precoated with bovine serum albumin, and the coverslips were rinsed repeatedly to remove non-adhering or loosely-adhering gold particles. Freshly-prepared neutrophils or tumor cells detached from culture were placed in a Petri dish containing the gold sol-coated plate, and incubated for 2 hours (for human neutrophils) or 18 hours (for tumor cells). The coverslips were fixed for 1 hour in 4% formaldehyde solution in phosphate-buffered saline (PBS) and mounted on microscope slides. The phagokinetic tracks were observed on a television connected to a light microscope (Nikon, Tokyo, Japan). Tracks on the television were transferred to translucent sheets, which were then photocopied. Phagokinetic activity was quantitated by cutting and weighing the swept area in the copy.
**mean ± S.D. Freshlyprepared neutrophils (1 × 10^4
cell/plate) were seeded on a coverslip precoated with gold sol particles
in the presence or absence of test compound. 2 hours later, incubation wa
terminated by adding 200 μl of 10% formaldehyde and the cleared area
was estimated as described in the text.

Compound | Inhibitory effect on PKC activity ([1]; 75 μM) | % PKC activity ([1]; 75 μM) [%] | Effect on invasion compared with SPN-1-P (B16/F1 melanoma cells; 70 hours) | % invasion (B16/F1 melanoma cells) [%] | Cleared area (human neutrophils; 0.45 μM) | % PKC activity ([1]; 10 μM) [%] | PKC inhibition [1] | Inhibition of invasion (B16/F1 melanoma cells; 10^-8 or 10^-7 M, 70 hours) | Inhibition of chemoinvasion compared with other sphingolipids (B16/F1 melanoma cells; comparison with other sphingolipids) | Cleared area (human neutrophils; 1.0 μM) | Cleared area (human neutrophils; 4.5 μM) | Reduction in phagokinetic activity of human neutrophils (human neutrophils)
CCCCCCCCCCCCC/C=C/[C@@H](O)[C@@H](N)CO [SPN, sphingosine] | strong inhibitory effect | 34 ± 7 | weaker effect | 16 ± 7 | 5.2 ± 2.0 × 10^3 μm^2 |  |  |  |  |  |  | 
CCCCCCCCCCCCC/C=C/[C@@H](O)[C@@H](N)COP(=O)(O)O [SPN-1-P, sphingosine-1-phosphate] | no inhibitory effect | 108 ± 32 |  |  | 5.5 ± 2.7 × 10^3 μm^2 | 121 ± 10 | does not inhibit PKC | strongly inhibited | unexpectedly superior inhibition | 5.4 ± 2.4 × 10^3 μm^2 | 3.5 ± 1.4 × 10^3 μm^2 | most striking
CCCCCCCCCCCCC/C=C/[C@@H](O)[C@H](CO)[N+](C)(C)C [TMS, N,N,N-trimethylsphingosine] | strong inhibitory effect | 16 ± 3 | weaker effect | 75 ± 8 | 5.4 ± 2.7 × 10^3 μm^2 |  | in striking contrast to DMS and TMS, SPN-1-P does not inhibit PKC |  |  | 3.6 ± 1.5 × 10^3 μm^2 |  | most striking
